Consider 16 compounds from US8236964B2, “Thiazolidine derivatives as orexin receptor antagonists” (Actelion Pharmaceuticals Ltd., priority 2007, dated 2012).

In one experiment the target is T1, human orexin-2 receptor (Homo sapiens, UniProt O43614).
T1 construct: expressed in transfected cells; host or cells: CHO cells (G418 selection)
T1 sequence (O43614 1-444): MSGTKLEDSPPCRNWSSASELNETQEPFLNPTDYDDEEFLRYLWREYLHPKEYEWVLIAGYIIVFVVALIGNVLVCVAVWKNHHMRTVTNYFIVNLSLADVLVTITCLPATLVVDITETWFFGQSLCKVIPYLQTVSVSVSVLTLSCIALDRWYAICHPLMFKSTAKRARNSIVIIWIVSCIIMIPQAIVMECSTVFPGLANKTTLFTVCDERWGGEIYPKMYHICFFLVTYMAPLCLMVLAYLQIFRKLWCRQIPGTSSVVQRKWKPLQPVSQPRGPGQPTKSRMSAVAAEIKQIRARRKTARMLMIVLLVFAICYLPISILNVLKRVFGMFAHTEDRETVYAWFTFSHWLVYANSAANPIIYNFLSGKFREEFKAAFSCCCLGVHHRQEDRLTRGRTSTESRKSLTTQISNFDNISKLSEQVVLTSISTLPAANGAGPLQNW
Put plainly: Intracellular calcium measurements (FLIPR), orexin receptor antagonistic activity, OX2. The format is cell-based. The settings on record: CHO cells expressing the human orexin-2 receptor; 10 nM orexin-A as agonist. As for the experimental part: (§1) The orexin receptor antagonistic activity of the compounds of formula (I) is determined in accordance with the following experimental method.
(§2) Intracellular Calcium Measurements:
(§3) Chinese hamster ovary (CHO) cells expressing the human orexin-1 receptor and the human orexin-2 receptor, respectively, are grown in culture medium (Ham F-12 with L-Glutamine) containing 300 μg/ml G418, 100 U/ml penicillin, 100 μg/ml streptomycin and 10% inactivated fetal calf serum (FCS). The cells are seeded at 80,000 cells/well into 96-well black clear bottom sterile plates (Costar) which have been precoated with 1% gelatine in Hanks' Balanced Salt Solution (HBSS). All reagents are from Gibco BRL. The seeded plates are incubated overnight at 37° C. in 5% CO2.
(§4) Human orexin-A as an agonist is prepared as 1 mM stock solution in methanol:water (1:1), diluted in HBSS containing 0.1% bovine serum albumin (BSA) and 2 mM HEPES for use in the assay at a final concentration of 10 nM.
(§5) Antagonists are prepared as 10 mM stock solution in DMSO, then diluted in 96-well plates, first in DMSO, then in HBSS containing 0.1% bovine serum albumin (BSA) and 2 mM HEPES.
(§6) On the day of the assay, 100 μl of loading medium (HBSS containing 1% FCS, 2 mM HEPES, 5 mM probenecid (Sigma) and 3 μM of the fluorescent calcium indicator fluo-3 AM (1 mM stock solution in DMSO with 10% pluronic acid) (Molecular Probes) is added to each well.
(§7) The 96-well plates are incubated for 60 min at 37° C. in 5% CO2. The loading solution is then aspirated and cells are washed 3 times with 200 μl HBSS containing 2.5 mM probenecid, 0.1% BSA, 2 mM HEPES. 100 μl of that same buffer is left in each well.
Within the Fluorescent Imaging Plate Reader (FLIPR, Molecular Devices), antagonists are added to the plate in a volume of 50 μl, incubated for 20 min and finally 100 μl of agonist is added. Fluorescence is measured for each well at 1 second intervals, and the height of each fluorescence peak is compared to the height of the fluorescence peak induced by 10 nM orexin-A with buffer in place of antagonist. For each antagonist, IC50 value (the concentration of compound needed to inhibit 50% of the agonistic response) is determined. Antagonistic activities of compounds are in the nanomolar range below 1000 nM with respect to the OX1 and/or the OX2 receptor.

A further experiment deals with T2, human orexin-1 receptor (Homo sapiens, UniProt O43613).
T2 construct: expressed in transfected cells; host or cells: CHO cells (G418 selection)
T2 sequence (O43613 1-425): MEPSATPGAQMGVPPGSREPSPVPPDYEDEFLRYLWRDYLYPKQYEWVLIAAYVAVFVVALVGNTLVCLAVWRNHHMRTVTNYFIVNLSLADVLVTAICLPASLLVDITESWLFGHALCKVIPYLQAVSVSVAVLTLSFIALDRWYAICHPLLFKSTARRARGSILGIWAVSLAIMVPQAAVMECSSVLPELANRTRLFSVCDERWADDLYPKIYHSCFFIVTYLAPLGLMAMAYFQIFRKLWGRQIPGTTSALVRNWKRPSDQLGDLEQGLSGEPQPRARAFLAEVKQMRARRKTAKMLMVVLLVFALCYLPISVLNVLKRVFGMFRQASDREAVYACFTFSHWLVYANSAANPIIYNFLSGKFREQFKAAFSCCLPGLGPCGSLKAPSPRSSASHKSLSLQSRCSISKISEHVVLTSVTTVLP
Put plainly: Intracellular calcium measurements (FLIPR), orexin receptor antagonistic activity, OX1. Format: cell-based. The settings on record: CHO cells expressing the human orexin-1 receptor; 10 nM orexin-A as agonist. As for the experimental part:
as §1, §2, §3, §4, §5, §6, §7
Within the Fluorescent Imaging Plate Reader (FLIPR, Molecular Devices), antagonists are added to the plate in a volume of 50 μl, incubated for 20 min and finally 100 μl of agonist is added. Fluorescence is measured for each well at 1 second intervals, and the height of each fluorescence peak is compared to the height of the fluorescence peak induced by 10 nM orexin-A with buffer in place of antagonist. For each antagonist, IC50 value (the concentration of compound needed to inhibit 50% of the agonistic response) is determined.

As to `COC1Cc2c(C(=O)NC[C@@H]3CSCN3C(=O)c3nc(C)sc3-c3cccc(C)c3)ccc(Cl)c2O1` (stereo partly drawn) [Example 133, 7-Chloro-2-methoxy-2,3-dihydro-benzofuran-4-carboxylic acid [(R)-3-(2-methyl-5-m-tolyl-thiazole-4-carbonyl)-thiazolidin-4-ylmethyl]-amide], the IC50 on human orexin-2 receptor amounted to 3 nM; on human orexin-1 receptor it was 8 nM.
Regarding `Cc1nc(C(=O)N2CSC[C@H]2CNC(=O)c2c(C)cn3ccsc23)c(-c2ccc(F)cc2)s1` [Example 132, 6-Methyl-pyrrolo[2,1-b]thiazole-7-carboxylic acid {(R)-3-[5-(4-fluoro-phenyl)-2-methyl-thiazole-4-carbonyl]-thiazolidin-4-ylmethyl}-amide], the results for the IC50 on human orexin-2 receptor and on human orexin-1 receptor were 6 nM and 5 nM, respectively.
For `Cc1cccc(-c2sc(C)nc2C(=O)N2CSC[C@H]2CNC(=O)c2ccc(C(F)(F)F)c3occc23)c1` [Example 141, 7-Trifluoromethyl-benzofuran-4-carboxylic acid [(R)-3-(2-methyl-5-m-tolyl-thiazole-4-carbonyl)-thiazolidin-4-ylmethyl]-amide], in that order: 4 nM and 10 nM.
For `Cc1cccc(-c2sc(C)nc2C(=O)N2CSC[C@H]2CNC(=O)c2ccc(F)c3occc23)c1` [Example 127, 7-Fluoro-benzofuran-4-carboxylic acid [(R)-3-(2-methyl-5-m-tolyl-thiazole-4-carbonyl)-thiazolidin-4-ylmethyl]-amide], in that order: 1 nM and 2 nM.
Take `Cc1nc(C(=O)N2CSC[C@H]2CNC(=O)c2c(C)nc3ccccn23)c(-c2ccc(F)cc2)s1` [Example 110, 2-Methyl-imidazo[1,2-a]pyridine-3-carboxylic acid {(R)-3-[5-(4-fluoro-phenyl)-2-methyl-thiazole-4-carbonyl]-thiazolidin-4-ylmethyl}-amide]: the IC50 on human orexin-2 receptor worked out at 804 nM; at human orexin-1 receptor, 99 nM.
As for `Cc1cccc(-c2sc(C)nc2C(=O)N2CSC[C@H]2CNC(=O)c2cccc3oc(CO)cc23)c1` [Example 147, 2-Hydroxymethyl-benzofuran-4-carboxylic acid [(R)-3-(2-methyl-5-m-tolyl-thiazole-4-carbonyl)-thiazolidin-4-ylmethyl]-amide], the IC50 at human orexin-2 receptor amounted to 10 nM; at human orexin-1 receptor, 9 nM.
For `Cc1nc(C(=O)N2CSC[C@H]2CNC(=O)c2c(C)nc3sccn23)c(-c2cccc(F)c2)s1` [Example 31, 6-Methyl-imidazo[2,1-b]thiazole-5-carboxylic acid {(R)-3-[5-(3-fluoro-phenyl)-2-methyl-thiazole-4-carbonyl]-thiazolidin-4-ylmethyl}-amide], the IC50 on human orexin-2 receptor stood at 7 nM; on human orexin-1 receptor, 6 nM.
On to `Cc1nc(C(=O)N2CSC[C@H]2CNC(=O)c2c(C)nc3sccn23)c(-c2cccc(C(F)(F)F)c2)o1` [Example 38, 6-Methyl-imidazo[2,1-b]thiazole-5-carboxylic acid {(R)-3-[2-methyl-5-(3-trifluoromethyl-phenyl)-oxazole-4-carbonyl]-thiazolidin-4-ylmethyl}-amide], for which the IC50 at human orexin-2 receptor came out at 80 nM; on human orexin-1 receptor it was 59 nM.
As for `O=C(NC[C@@H]1CSCN1C(=O)c1ccccc1-c1ccccc1)c1cccc2occc12` [Example 79, Benzofuran-4-carboxylic acid [(R)-3-(biphenyl-2-carbonyl)-thiazolidin-4-ylmethyl]-amide], the results for the IC50 on human orexin-2 receptor and at human orexin-1 receptor were 9 nM and 23 nM, respectively.
Turning to `Cc1nc(C(=O)N2CSC[C@H]2CNC(=O)c2cccc3c2NCCO3)c(-c2ccc(F)cc2)s1` [Example 112, 3,4-Dihydro-2H-benzo[1,4]oxazine-5-carboxylic acid {(R)-3-[5-(4-fluoro-phenyl)-2-methyl-thiazole-4-carbonyl]-thiazolidin-4-ylmethyl}-amide], the IC50 was 17 nM at human orexin-2 receptor and 6 nM on human orexin-1 receptor.
For `Cc1ccc(-c2nc(C)sc2C(=O)N2CSC[C@H]2CNC(=O)c2c(C)nc3sccn23)cc1` [Example 41, 6-Methyl-imidazo[2,1-b]thiazole-5-carboxylic acid [(R)-3-(2-methyl-4-p-tolyl-thiazole-5-carbonyl)-thiazolidin-4-ylmethyl]-amide], in that order: 11 nM and 7 nM.
Consider `Cc1nc(C(=O)N2CSC[C@H]2CNC(=O)c2cc3ccccc3s2)c(-c2ccc(F)cc2)s1` [Example 91, Benzo[b]thiophene-2-carboxylic acid {(R)-3-[5-(4-fluoro-phenyl)-2-methyl-thiazole-4-carbonyl]-thiazolidin-4-ylmethyl}-amide], for which the IC50 at human orexin-2 receptor stood at 22 nM; on human orexin-1 receptor, 5950 nM.
In the case of `Cc1nc(C(=O)N2CSC[C@H]2CNC(=O)c2nn(C)c3ccccc23)c(-c2ccc(F)cc2)s1` [Example 4, 1-Methyl-1H-indazole-3-carboxylic acid {(R)-3-[5-(4-fluoro-phenyl)-2-methyl-thiazole-4-carbonyl]-thiazolidin-4-ylmethyl}-amide], the IC50 at human orexin-2 receptor was found to be 8 nM.
For the compound `Cc1cccc(-c2sc(C)nc2C(=O)N2CSC[C@H]2CNC(=O)c2cccc3ncoc23)c1` [Example 119, Benzooxazole-7-carboxylic acid [(R)-3-(2-methyl-5-m-tolyl-thiazole-4-carbonyl)-thiazolidin-4-ylmethyl]-amide], the IC50 was 3 nM on human orexin-2 receptor and 2 nM on human orexin-1 receptor.
For `COc1cccc(-c2sc(C)nc2C(=O)N2CSC[C@H]2CNC(=O)c2cccc3occc23)c1` [Example 11, Benzofuran-4-carboxylic acid {(R)-3-[5-(3-methoxy-phenyl)-2-methyl-thiazole-4-carbonyl]-thiazolidin-4-ylmethyl}-amide], the half-maximal inhibitory concentration (IC50) at human orexin-2 receptor and on human orexin-1 receptor was 1 nM in each case.
For the compound `Cn1nc(C(=O)NC[C@@H]2CSCN2C(=O)c2ccccc2-c2ccccc2)c2ccccc21` [Example 83, 1-Methyl-1H-indazole-3-carboxylic acid [(R)-3-(biphenyl-2-carbonyl)-thiazolidin-4-ylmethyl]-amide], the IC50 on human orexin-2 receptor and at human orexin-1 receptor was 6 nM in each case.
